According to patent publication US10512634B2, “Benzimidazole derivates useful as inhibitors of mammalian histone deacetylase activity” (KANCERA AB, priority 2015, dated 2019):
pIC50: −log10 of the molar value. Counter-ions that a name gives are not always drawn. Like-named read-outs stand apart in the source and are kept apart here.

What was measured:
[1] = test system: AMO-1 (plasmacytom); experiment: CellTiter-Blue cell viability assay; type: cell-based; conditions: Homo sapiens, read-out: IC50 AMO-1 (cell viability)
Experimental: (§1) Method for Measurement of Cell Viability
(§2) The CellTiter-Blue® Cell Viability Assay (Promega) provides a homogeneous, fluorometric method for estimating the number of viable cells present in multi-well plates. The assay uses the indicator dye resazurin to measure the metabolic capacity of cells. Viable cells retain the ability to reduce resazurin into resorufin, which is highly fluorescent.
(§3) Stock solutions (10 mM in DMSO) of compounds were serially diluted 1:2 in 11 concentrations. 50 nL/well (10 mM compound stock in DMSO) was acoustically dispensed in 384-well assay plates with an acoustic dispenser (EDC Biosystems ATS-100AV). Final starting concentration in the assay was 20 μM (0.2% DMSO) for test compounds. […] After 72 hours, Celltiter Blue reagent (Promega #G8081) was diluted 1:10 with PBS and then added to wells (5 μL/well). The plates were incubated for 2 hours following addition of reagent. […] Results were calculated as % cell viability compared to background (cells treated with 0.2% DMSO).

[2] = test system: PBMC (peripheral blood mononuclear cells from healthy donors); experiment: CellTiter-Blue cell viability assay; type: cell-based; conditions: read-out: IC50 healthy PBMC (cell viability)
Experimental: as §1, §2, §3

[3] = test system: PaCa2 (pancreatic); experiment: CellTiter-Blue cell viability assay; type: cell-based; conditions: read-out: IC50 PaCa2 (cell viability)
Experimental: as §1, §2, §3

[4] = test system: U266 (multiple myelom); experiment: CellTiter-Blue cell viability assay; type: cell-based; conditions: Homo sapiens, read-out: IC50 U266 (cell viability)
Experimental: as §1, §2, §3

[5] = target: HDAC6 (Homo sapiens (Human), UniProt Q9UBN7); experiment: HDAC in vitro enzymatic assay (fluorescence); type: biochemical
Experimental: Biological Tests Method for Measurement of Enzymatic Activity of HDACs Materials & Methods
All Examples were tested in HDAC1, 2, 3, 6 and 8 in vitro enzymatic assays. The assay principle is well known (Hauser et al. 2009, Bradner et al. 2010) and all necessary reagents like enzymes, substrates, developer and reference compounds are commercially available (see e.g. BPS Biosciences http://www.bpsbioscience.com/). A series of dilutions of the compounds were prepared with a top concentration of 200 μM (2 μM for HDAC6). The enzymatic reactions were conducted in a mixture containing assay buffer, bovine serum albumin, HDAC substrate, and a test compound. After enzymatic reaction, developer was added and after an additional incubation time, fluorescence intensity was measured at an excitation wavelength of 360 nm and an emission wavelength of 460 nm. A selection of the Examples were tested in a full HDAC panel containing HDAC1, 2, 3, 4, 5, 6, 7, 8, 9, 10 and 11 in vitro enzymatic assays. The tests were performed as above except that a series of dilutions of the compounds were prepared with a top concentration of 10 μM for all HDACs.

[6] = target: HDAC1 (Homo sapiens (Human), UniProt Q13547); experiment: HDAC in vitro enzymatic assay (fluorescence)
Sequence of HDAC1 (Q13547 whole entry): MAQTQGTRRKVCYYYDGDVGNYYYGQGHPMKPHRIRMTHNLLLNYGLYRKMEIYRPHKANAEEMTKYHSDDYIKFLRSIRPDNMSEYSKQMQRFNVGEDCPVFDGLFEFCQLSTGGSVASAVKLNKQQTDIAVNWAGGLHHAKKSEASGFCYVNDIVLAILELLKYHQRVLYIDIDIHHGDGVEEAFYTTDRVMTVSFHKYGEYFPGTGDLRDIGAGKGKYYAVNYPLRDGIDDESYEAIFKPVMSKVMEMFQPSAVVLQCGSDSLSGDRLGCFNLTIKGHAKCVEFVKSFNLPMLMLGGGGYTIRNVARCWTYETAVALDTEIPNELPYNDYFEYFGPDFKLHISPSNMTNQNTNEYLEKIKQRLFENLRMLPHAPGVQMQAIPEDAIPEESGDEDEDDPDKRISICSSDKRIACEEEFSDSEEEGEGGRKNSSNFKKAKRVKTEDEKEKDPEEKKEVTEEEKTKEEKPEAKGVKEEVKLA

[7] = target: HDAC2 (Homo sapiens (Human), UniProt Q92769); experiment: HDAC in vitro enzymatic assay (fluorescence); conditions: read-out: IC50 HDAC2
Sequence of HDAC2 (Q92769 whole entry): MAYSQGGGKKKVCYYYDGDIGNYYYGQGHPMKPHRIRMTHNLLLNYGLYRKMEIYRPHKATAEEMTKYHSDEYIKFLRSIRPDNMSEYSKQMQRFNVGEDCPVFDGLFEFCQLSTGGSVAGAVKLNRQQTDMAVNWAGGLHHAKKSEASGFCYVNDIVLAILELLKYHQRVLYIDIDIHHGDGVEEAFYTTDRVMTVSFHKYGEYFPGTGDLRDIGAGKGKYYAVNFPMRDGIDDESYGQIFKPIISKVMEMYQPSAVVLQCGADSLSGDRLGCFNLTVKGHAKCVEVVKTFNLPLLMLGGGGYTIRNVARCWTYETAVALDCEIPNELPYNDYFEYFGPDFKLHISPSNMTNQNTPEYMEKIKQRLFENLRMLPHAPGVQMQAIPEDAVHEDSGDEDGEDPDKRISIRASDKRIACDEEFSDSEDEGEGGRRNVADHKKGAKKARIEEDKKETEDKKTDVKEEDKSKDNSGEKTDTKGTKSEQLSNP

[8] = target: HDAC3 (Homo sapiens (Human), UniProt O15379); experiment: HDAC in vitro enzymatic assay (fluorescence); conditions: read-out: IC50 HDAC3
Sequence of HDAC3 (O15379 whole entry): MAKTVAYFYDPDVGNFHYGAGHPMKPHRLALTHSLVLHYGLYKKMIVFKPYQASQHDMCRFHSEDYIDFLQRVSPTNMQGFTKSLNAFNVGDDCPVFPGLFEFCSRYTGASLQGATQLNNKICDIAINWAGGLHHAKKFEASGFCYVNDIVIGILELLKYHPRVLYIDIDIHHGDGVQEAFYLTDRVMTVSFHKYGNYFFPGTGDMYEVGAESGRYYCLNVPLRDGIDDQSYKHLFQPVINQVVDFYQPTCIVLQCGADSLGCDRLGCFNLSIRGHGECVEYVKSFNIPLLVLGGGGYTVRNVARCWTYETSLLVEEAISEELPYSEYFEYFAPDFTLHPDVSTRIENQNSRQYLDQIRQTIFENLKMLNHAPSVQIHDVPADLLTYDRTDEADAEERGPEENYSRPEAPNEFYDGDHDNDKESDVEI
Sequence of HDAC3 (Q9Y618 395-489 partner): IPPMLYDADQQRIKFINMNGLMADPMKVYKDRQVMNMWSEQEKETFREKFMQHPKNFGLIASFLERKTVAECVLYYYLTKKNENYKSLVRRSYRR

[9] = target: HDAC8 (Homo sapiens (Human), UniProt Q9BY41); experiment: HDAC in vitro enzymatic assay (fluorescence); conditions: read-out: IC50 HDAC8
Sequence of HDAC8 (Q9BY41 whole entry): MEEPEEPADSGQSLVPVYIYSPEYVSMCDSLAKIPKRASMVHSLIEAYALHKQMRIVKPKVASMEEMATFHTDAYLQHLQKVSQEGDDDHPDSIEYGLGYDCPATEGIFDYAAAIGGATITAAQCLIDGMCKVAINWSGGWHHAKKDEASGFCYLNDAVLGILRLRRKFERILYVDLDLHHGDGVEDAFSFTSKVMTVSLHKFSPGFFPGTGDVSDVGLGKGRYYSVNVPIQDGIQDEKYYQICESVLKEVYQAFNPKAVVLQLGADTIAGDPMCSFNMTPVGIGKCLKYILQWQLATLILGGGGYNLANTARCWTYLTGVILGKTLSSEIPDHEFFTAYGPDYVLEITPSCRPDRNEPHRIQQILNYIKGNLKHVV

[10] = target: HDAC4 (Homo sapiens (Human), UniProt P56524); experiment: HDAC in vitro enzymatic assay (full HDAC panel); conditions: read-out: IC50 HDAC4, top concentration 10 μM
Sequence of HDAC4 (P56524 whole entry): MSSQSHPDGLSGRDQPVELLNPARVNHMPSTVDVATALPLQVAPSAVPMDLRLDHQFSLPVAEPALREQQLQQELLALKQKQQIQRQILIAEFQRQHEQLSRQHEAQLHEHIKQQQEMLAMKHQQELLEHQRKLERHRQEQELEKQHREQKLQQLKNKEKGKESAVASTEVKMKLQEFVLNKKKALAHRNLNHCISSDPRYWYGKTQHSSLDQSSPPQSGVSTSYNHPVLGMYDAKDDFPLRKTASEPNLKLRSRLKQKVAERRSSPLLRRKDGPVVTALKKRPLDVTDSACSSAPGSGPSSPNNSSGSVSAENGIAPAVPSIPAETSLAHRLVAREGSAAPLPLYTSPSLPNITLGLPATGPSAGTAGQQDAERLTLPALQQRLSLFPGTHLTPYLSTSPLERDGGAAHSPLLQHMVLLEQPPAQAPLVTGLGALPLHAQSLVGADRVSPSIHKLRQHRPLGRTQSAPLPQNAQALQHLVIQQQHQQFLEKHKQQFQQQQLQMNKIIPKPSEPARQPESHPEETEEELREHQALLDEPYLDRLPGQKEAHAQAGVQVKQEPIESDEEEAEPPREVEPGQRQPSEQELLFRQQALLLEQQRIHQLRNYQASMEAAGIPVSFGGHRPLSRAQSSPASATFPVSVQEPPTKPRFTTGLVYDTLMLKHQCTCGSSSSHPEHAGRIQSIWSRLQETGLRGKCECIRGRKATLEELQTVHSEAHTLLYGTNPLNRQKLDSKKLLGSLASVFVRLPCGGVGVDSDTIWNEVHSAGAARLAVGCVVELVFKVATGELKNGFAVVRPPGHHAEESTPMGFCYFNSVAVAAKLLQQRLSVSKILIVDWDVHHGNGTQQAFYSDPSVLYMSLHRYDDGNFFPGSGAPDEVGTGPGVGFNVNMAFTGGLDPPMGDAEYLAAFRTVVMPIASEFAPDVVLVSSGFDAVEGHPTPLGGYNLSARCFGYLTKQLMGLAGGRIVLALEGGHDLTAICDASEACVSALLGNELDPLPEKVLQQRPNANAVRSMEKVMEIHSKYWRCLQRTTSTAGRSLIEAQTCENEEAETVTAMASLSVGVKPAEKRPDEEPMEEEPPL

[11] = target: HDAC5 (Homo sapiens (Human), UniProt Q9UQL6); experiment: HDAC in vitro enzymatic assay (full HDAC panel); conditions: read-out: IC50 HDAC5, top concentration 10 μM
[12] = target: HDAC7 (Homo sapiens (Human), UniProt Q8WUI4); experiment: HDAC in vitro enzymatic assay (full HDAC panel); conditions: read-out: IC50 HDAC7, top concentration 10 μM
Sequence of HDAC7 (Q8WUI4 whole entry): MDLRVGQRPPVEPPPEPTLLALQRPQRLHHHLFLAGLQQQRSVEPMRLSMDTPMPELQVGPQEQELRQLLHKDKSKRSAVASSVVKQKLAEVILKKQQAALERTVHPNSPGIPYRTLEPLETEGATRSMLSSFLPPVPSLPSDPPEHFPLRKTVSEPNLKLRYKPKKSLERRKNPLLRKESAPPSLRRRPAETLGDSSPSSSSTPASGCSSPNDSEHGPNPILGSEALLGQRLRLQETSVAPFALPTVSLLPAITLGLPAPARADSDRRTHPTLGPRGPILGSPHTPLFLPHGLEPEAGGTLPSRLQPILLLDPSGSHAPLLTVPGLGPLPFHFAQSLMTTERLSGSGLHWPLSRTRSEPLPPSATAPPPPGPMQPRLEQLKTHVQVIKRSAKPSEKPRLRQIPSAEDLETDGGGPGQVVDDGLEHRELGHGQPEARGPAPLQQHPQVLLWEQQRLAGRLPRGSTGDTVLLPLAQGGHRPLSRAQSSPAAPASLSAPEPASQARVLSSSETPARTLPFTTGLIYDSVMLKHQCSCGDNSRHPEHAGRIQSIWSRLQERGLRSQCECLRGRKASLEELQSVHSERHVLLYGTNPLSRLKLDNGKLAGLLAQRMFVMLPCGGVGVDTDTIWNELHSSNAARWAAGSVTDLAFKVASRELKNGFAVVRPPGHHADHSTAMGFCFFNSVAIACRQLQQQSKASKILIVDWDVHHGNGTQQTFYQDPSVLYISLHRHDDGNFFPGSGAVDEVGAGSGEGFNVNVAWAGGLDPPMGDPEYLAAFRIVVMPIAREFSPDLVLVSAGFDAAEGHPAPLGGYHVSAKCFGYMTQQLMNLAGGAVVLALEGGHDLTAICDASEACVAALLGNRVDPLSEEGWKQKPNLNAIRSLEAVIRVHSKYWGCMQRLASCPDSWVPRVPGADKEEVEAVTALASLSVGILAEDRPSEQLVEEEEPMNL

[13] = target: HDAC9 (Homo sapiens (Human), UniProt Q9UKV0); experiment: HDAC in vitro enzymatic assay (full HDAC panel); conditions: read-out: IC50 HDAC9, top concentration 10 μM
[14] = target: HDAC10 (Homo sapiens (Human), UniProt Q969S8); experiment: HDAC in vitro enzymatic assay (full HDAC panel); conditions: read-out: IC50 HDAC10, top concentration 10 μM
Sequence of HDAC10 (Q969S8 whole entry): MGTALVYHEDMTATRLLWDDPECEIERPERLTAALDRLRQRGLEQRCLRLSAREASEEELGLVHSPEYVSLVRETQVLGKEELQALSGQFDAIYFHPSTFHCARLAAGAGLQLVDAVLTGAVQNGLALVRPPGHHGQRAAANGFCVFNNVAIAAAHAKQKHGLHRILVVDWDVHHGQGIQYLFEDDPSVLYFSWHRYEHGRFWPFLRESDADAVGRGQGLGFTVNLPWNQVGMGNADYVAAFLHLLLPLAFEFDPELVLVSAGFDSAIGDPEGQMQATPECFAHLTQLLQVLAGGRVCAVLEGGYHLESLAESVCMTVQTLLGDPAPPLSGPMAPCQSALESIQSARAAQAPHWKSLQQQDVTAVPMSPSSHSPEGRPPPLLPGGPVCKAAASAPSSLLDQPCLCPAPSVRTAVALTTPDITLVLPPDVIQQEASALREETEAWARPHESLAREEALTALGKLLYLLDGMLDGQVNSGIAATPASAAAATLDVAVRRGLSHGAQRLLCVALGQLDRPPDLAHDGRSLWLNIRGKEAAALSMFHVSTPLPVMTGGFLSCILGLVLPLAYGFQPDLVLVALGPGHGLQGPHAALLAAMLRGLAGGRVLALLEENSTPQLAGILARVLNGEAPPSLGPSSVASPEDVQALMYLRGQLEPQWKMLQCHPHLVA

[15] = target: HDAC11 (Homo sapiens (Human), UniProt Q96DB2); experiment: HDAC in vitro enzymatic assay (full HDAC panel); conditions: read-out: IC50 HDAC11, top concentration 10 μM
Sequence of HDAC11 (Q96DB2 whole entry): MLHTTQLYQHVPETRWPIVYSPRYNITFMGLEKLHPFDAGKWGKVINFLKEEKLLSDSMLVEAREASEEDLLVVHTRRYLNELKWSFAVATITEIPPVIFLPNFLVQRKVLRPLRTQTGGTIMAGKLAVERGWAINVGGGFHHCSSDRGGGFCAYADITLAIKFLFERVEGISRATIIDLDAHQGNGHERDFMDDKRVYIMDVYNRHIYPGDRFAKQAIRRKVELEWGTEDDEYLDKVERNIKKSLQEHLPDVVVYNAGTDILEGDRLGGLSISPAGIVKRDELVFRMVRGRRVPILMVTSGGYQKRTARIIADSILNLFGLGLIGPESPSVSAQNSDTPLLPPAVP

[16] = AMO1, AMO-1 cells, 72 hours of treatment
[17] = healthy PBMC, 72 hours of treatment
[18] = PaCa-2, PaCa2 cells, 72 hours of treatment
[19] = U-266, U266 cells, 72 hours of treatment
[20] = selectivity profiling, top concentration 2 μM, read-out: IC50 HDAC6
[21] = top concentration 2 μM, read-out: IC50 values for inhibition of HDAC6
[22] = read-out: IC50 HDAC1, selectivity profiling, top concentration 200 μM
[23] = selectivity profiling, top concentration 200 μM
[24] = full HDAC panel, top concentration 10 μM

Compound | pIC50 [4, 19] | pIC50 [1, 16] | pIC50 [2, 17] | pIC50 [3, 18] | pIC50 [5, 20] | pIC50 [5, 21] | pIC50 ([1]; AMO1, 72 h) | pIC50 ([2]; PBMC, 72 h) | pIC50 ([3]; PaCa-2, 72 h) | pIC50 ([4]; U-266, 72 h) | pIC50 [6, 22] | pIC50 [7, 23] | pIC50 [8, 23] | pIC50 [9, 23] | other results
CCCCc1ccc(-c2nc3ccc(C(=O)NO)cc3[nH]2)cc1 [Example 162, 2-(4-butylphenyl)-N-hydroxy-1H-benzimidazole-6-carboxamide] | – | – | – | – | 7.51 | 7.51 | 5.43 | < 4.70 | 6.09 | 6.13 | 5.11 | 4.03 | 4.96 | 6.72 | –
Cc1cc(O)cc(C)c1-c1nc2ccc(C(=O)NO)cc2[nH]1 [Example 15, N-hydroxy-2-(4-hydroxy-2,6-dimethylphenyl)-1H-benzimidazole-6-carboxamide] | – | – | – | – | – | 7.16 | – | – | – | – | – | – | – | – | pIC50 ([5]; full HDAC panel, top concentration 10 μM, read-out: IC50 HDAC6): 7.16; pIC50 ([6]; read-out: IC50 HDAC 1, full HDAC panel, top concentration 10 μM): < 5.00; pIC50 [7, 24]: < 5.00; pIC50 [8, 24]: 5.09; pIC50 [9, 24]: < 5.00; pIC50 [10]: < 5.00; pIC50 [11]: < 5.00; pIC50 [12]: 5.52; pIC50 [13]: 5.16; pIC50 [14]: < 5.00; pIC50 [15]: < 5.00
O=C(NO)c1ccc2nc(-c3ccc(Br)cc3)[nH]c2c1 [Example 3, 2-(4-bromophenyl)-N-hydroxy-1H-benzimidazole-6-carboxamide] | 5.54 | 5.20 | < 4.70 | 5.22 | – | 7.35 | – | – | – | – | – | – | – | – | –
O=C(NO)c1ccc2nc(-c3ccc(-c4ccc(CN5CCOCC5)cc4)cc3)[nH]c2c1 [Example 190, N-hydroxy-2-[4′-(morpholin-4-ylmethyl)biphenyl-4-yl]-1H-benzimidazole-6-carboxamide trifluoroacetate] | – | – | – | – | 7.68 | 7.68 | 5.09 | < 4.70 | 5.64 | 5.41 | 5.40 | 4.89 | 6.04 | 7.10 | –
CC(C)c1ccc(-c2nc3cc(C(=O)NO)ccc3n2C)cc1 [Example 223, N-hydroxy-1-methyl-2-[4-(1-methylethyl)phenyl]-1H-benzimidazole-5-carboxamide] | – | – | – | – | 7.55 | 7.55 | 4.74 | < 4.70 | 5.27 | 5.09 | 5.80 | 4.22 | 5.35 | 7.08 | –
CC(C)c1ccc(-c2nc3ccc(C(=O)NO)cc3[nH]2)cc1 [Example 50, N-hydroxy-2-[4-(1-methylethyl)phenyl]-1H-benzimidazole-6-carboxamide] | – | – | – | – | 7.85 | 7.85 | 5.70 | < 4.70 | 6.54 | 6.24 | 5.48 | 4.49 | 5.47 | 6.38 | –
O=C(NO)c1ccc2nc(-c3ccc(-c4ccccc4)cc3)[nH]c2c1 [Example 6, 2-biphenyl-4-yl-N-hydroxy-1H-benzimidazole-6-carboxamide] | – | – | – | – | 7.82 | 7.82 | 5.77 | < 4.70 | 6.39 | 6.27 | 4.29 | 3.80 | 5.68 | 6.33 | –
Cn1c(-c2ccc(-c3ccccc3)cc2)nc2cc(C(=O)NO)ccc21 [Example 225, 2-biphenyl-4-yl-N-hydroxy-1-methyl-1H-benzimidazole-5-carboxamide] | – | – | – | – | 8.44 | 8.44 | < 4.70 | < 4.70 | 6.00 | 6.47 | 6.49 | < 3.70 | < 3.70 | 7.13 | –
O=C(NO)c1ccc2nc(-c3cccc(Br)c3)[nH]c2c1 [Example 21, 2-(3-bromophenyl)-N-hydroxy-1H-benzimidazole-6-carboxamide] | – | – | – | – | 7.92 | 7.92 | 5.15 | < 4.70 | 5.37 | 5.11 | 5.82 | 5.03 | 6.11 | 7.21 | –

Continued, in another order:

pIC50 [4, 19] | Compound | pIC50 [1, 16] | pIC50 [2, 17] | pIC50 [3, 18] | pIC50 [5, 20] | pIC50 [5, 21] | pIC50 ([1]; AMO1, 72 h) | pIC50 ([2]; PBMC, 72 h) | pIC50 ([3]; PaCa-2, 72 h) | pIC50 ([4]; U-266, 72 h) | pIC50 [6, 22] | pIC50 [7, 23] | pIC50 [8, 23] | pIC50 [9, 23] | other results
6.31 | O=C(NO)c1ccc2nc(-c3ccc(-c4cccc(Cl)c4)cc3)[nH]c2c1 [Example 151, 2-(3′-chlorobiphenyl-4-yl)-N-hydroxy-1H-benzimidazole-6-carboxamide] | 5.72 | < 4.70 | 6.00 | – | – | – | – | – | – | – | – | – | – | –
5.70 | O=C(NO)c1ccc2nc(-c3ccc(Oc4ccccc4)cc3)[nH]c2c1 [Example 8, N-hydroxy-2-(4-phenoxyphenyl)-1H-benzimidazole-6-carboxamide] | 5.64 | < 4.70 | 5.77 | – | – | – | – | – | – | – | – | – | – | –
6.19 | CCCCCCCCCc1ccc(-c2nc3ccc(C(=O)NO)cc3[nH]2)cc1 [Example 161, 2-(4-nonylphenyl)-N-hydroxy-1H-benzimidazole-6-carboxamide] | 5.26 | < 4.70 | 6.21 | – | – | – | – | – | – | – | – | – | – | –
5.68 | COc1ccc2cc(-c3nc4ccc(C(=O)NO)cc4[nH]3)ccc2c1 [Example 10, N-hydroxy-2-(6-methoxynaphthalen-2-yl)-1H-benzimidazole-6-carboxamide] | 5.66 | < 4.70 | 5.92 | – | – | – | – | – | – | – | – | – | – | –
6.21 | O=C(NO)c1ccc2nc(-c3ccc(-c4cccc(Cl)c4)s3)[nH]c2c1 [Example 177, 2-[5-(3-chlorophenyl)thiophen-2-yl]-N-hydroxy-1H-benzimidazole-6-carboxamide] | 5.46 | < 4.70 | 5.96 | – | 8.29 | – | – | – | – | – | – | – | – | –
5.92 | CC(C)(C)c1ccc(-c2nc3ccc(C(=O)NO)cc3[nH]2)cc1 [Example 159, 2-(4-tert-butylphenyl)-N-hydroxy-1H-benzimidazole-6-carboxamide] | 5.20 | < 4.70 | 5.68 | – | 7.72 | – | – | – | – | – | – | – | – | –
5.41 | O=C(NO)c1ccc2nc(-c3cccc(C(F)(F)F)c3Cl)[nH]c2c1 [Example 34, 2-[2-chloro-3-(trifluoromethyl)phenyl]-N-hydroxy-1H-benzimidazole-6-carboxamide] | 5.00 | < 4.70 | 4.92 | – | – | – | – | – | – | – | – | – | – | –
